What all share (assay type): in vivo
The subject of assay [1] is Digitaria ciliaris. Briefly: Weed foliar treatment test. The settings on record: foliar spray at 1.0 to 2.0 leaf stage of Digitaria ciliaris, 3 weeks. On the procedure:
(§1) Soil was filled into a 1/6000 are pot followed by seeding with Digitaria ciliaris, Chenopodium album and Amaranthus retroflexus, covering with soil, and cultivating in a glass greenhouse at an average atmospheric temperature of 25° C.
(§2) Wettable powder of Target Compound (I) shown in Table 1 prepared in compliance with the preparation examples were diluted with water to the prescribed amount of chemical and uniformly sprayed onto the weeds using 15 liters of sprayed water per are when Digitaria ciliaris had grown to the 1.0 to 2.0 leaf stage.
(§3) After treating for 3 weeks in a glass greenhouse at an average atmospheric temperature of 25° C., the herbicidal efficacy thereof was investigated.
(§4) Evaluation of herbicidal efficacy was carried out in the same manner as the above-mentioned Test Example 1.

For assay [2], the system named is Amaranthus retroflexus. Briefly: Weed foliar treatment test. The settings on record: foliar spray, 3 weeks. On the procedure:
as §1, §2, §3, §4

Assay [3] relates to Chenopodium album. The assay can be described thus: Weed foliar treatment test. The settings on record: foliar spray, 3 weeks. The method, then: as §1, §2, §3, §4
The subject of the next assay is Scirpus juncoides. Briefly: Paddy herbicidal activity test. The settings on record: irrigated paddy pot, 30 days. The method, then:
(§5) Rice paddy soil was filled into a 1/10000 are pot followed by the addition of suitable amounts of water and chemical fertilizer, kneading, seeding with Echinochloa crus-galli, Monochoria vaginalis and Scirpus juncoides and maintaining in an irrigated state at a water depth of 3 cm.
(§6) Wettable powder of Target Compound (I) shown in Table 1 prepared in compliance with the preparation examples were diluted with a suitable amount of water, rice plants in the 2.0 leaf stage were transplanted during 3.5 leaf stage of Echinochloa crus-galli, and treated by dropping in chemical in the prescribed amount per are using a pipette.
(§7) After treating for 30 days in a glass greenhouse at an average atmospheric temperature of 30° C., the herbicidal efficacy thereof was investigated.
(§8) Evaluation of herbicidal efficacy was carried out by comparing growth inhibition rate (%) with an untreated group, while evaluation of phytotoxicity was carried out by comparing growth inhibition rate (%) with the state of a complete eradication group, and were evaluated at 11 levels indicated below.

Another assay concerns Echinochloa crus-galli. Briefly: Paddy herbicidal activity test. The settings on record: irrigated paddy pot, treated at 3.5 leaf stage of Echinochloa crus-galli, 30 days. The method, then: as §5, §6, §7, §8
A further assay has as its system Monochoria vaginalis. Briefly: Paddy herbicidal activity test. The settings on record: irrigated paddy pot, 30 days. The method, then:
as §5, §6, §7, §8

The test system of assay [4] is Digitaria ciliaris. Briefly: Farming soil treatment test. The settings on record: soil surface spray prior to weed growth, 30 days. On the procedure: (§9) Field soil was filled into a 1/6000 are pot followed by seeding with Digitaria ciliaris, Chenopodium album and Amaranthus retroflexus and covering with soil.
(§10) Wettable powder of compounds of formula (I) shown in Table 1 prepared in compliance with the preparation examples were diluted with water to the prescribed amount of chemical and uniformly sprayed onto each soil surface layer using 10 liters of sprayed water per are prior to weed growth following seeding.
as §7
(§11) Evaluation of herbicidal efficacy is carried out in the same manner as the above-mentioned Test Example 1.

Assay [5] has as its system Amaranthus retroflexus. Briefly: Farming soil treatment test. The settings on record: soil surface spray prior to weed growth, 30 days. The method, then: as §9, §10, §7, §11
The test system of assay [6] is Chenopodium album. The assay can be described thus: Farming soil treatment test. The settings on record: soil surface spray prior to weed growth, 30 days. The method, then:
as §9, §10, §7, §11

Data on 10 compounds can be found in patent US9593122B2, “Substituted pyrazolylpyrazole derivative and use of same as herbicide” (KYOYU AGRI CO., LTD., priority 2013, dated 2017).

As for `CC=CCNc1c(C#N)cnn1-c1nn2c(c1Cl)CCCC2` (mixture of isomers) [Compound 12], the “Digitaria ciliaris herbicidal efficacy (growth inhibition level)” value with Digitaria ciliaris [1] (5g a.i./10a), in the assay with Digitaria ciliaris [1] (10g a.i./10a), in the assay on Digitaria ciliaris [4] (5g a.i./10a) and in the assay with Digitaria ciliaris [4] (10g a.i./10a) was 10 (10: 100%) each time. Further, the “Amaranthus retroflexus herbicidal efficacy (growth inhibition level)” value with Amaranthus retroflexus [2] (5g a.i./10a), with Amaranthus retroflexus [2] (10g a.i./10a), in the assay on Amaranthus retroflexus [5] (5g a.i./10a) and in the assay with Amaranthus retroflexus [5] (10g a.i./10a) was 10 (10: 100%) in each case. In addition, the “Chenopodium album herbicidal efficacy (growth inhibition level)” value in the assay with Chenopodium album [3] (5g a.i./10a), with Chenopodium album [3] (10g a.i./10a), in the assay on Chenopodium album [6] (5g a.i./10a) and in the assay with Chenopodium album [6] (10g a.i./10a) was 10 (10: 100%) throughout. Moreover, the “Scirpus juncoides herbicidal efficacy (growth inhibition level)” value with Scirpus juncoides (1g a.i./10a) is 8 (8: 80% to less than 90%); with Scirpus juncoides (5g a.i./10a), 9 (9: 90% to less than 100%). Moreover, the figures for the “Echinochloa crus-galli herbicidal efficacy (growth inhibition level)” value in the assay with Echinochloa crus-galli (1g a.i./10a) and in the assay with Echinochloa crus-galli (5g a.i./10a) were 9 (9: 90% to less than 100%) and 10 (10: 100%), respectively. Besides, the “Monochoria vaginalis herbicidal efficacy (growth inhibition level)” value in the assay with Monochoria vaginalis (1g a.i./10a) was 9 (9: 90% to less than 100%); with Monochoria vaginalis (5g a.i./10a) it was 10 (10: 100%).

On to `C=C(Cl)CNc1c([N+](=O)[O-])cnn1-c1nn2c(c1Cl)CCCC2` [Compound 30], for which the “Digitaria ciliaris herbicidal efficacy (growth inhibition level)” value in the assay with Digitaria ciliaris [1] (5g a.i./10a), in the assay on Digitaria ciliaris [1] (10g a.i./10a), with Digitaria ciliaris [4] (5g a.i./10a) and in the assay with Digitaria ciliaris [4] (10g a.i./10a) was 10 (10: 100%) throughout. Further, the “Amaranthus retroflexus herbicidal efficacy (growth inhibition level)” value with Amaranthus retroflexus [2] (5g a.i./10a), with Amaranthus retroflexus [2] (10g a.i./10a), in the assay on Amaranthus retroflexus [5] (5g a.i./10a) and in the assay on Amaranthus retroflexus [5] (10g a.i./10a) was 10 (10: 100%) each time. Besides, the “Chenopodium album herbicidal efficacy (growth inhibition level)” value with Chenopodium album [3] (5g a.i./10a), in the assay on Chenopodium album [3] (10g a.i./10a), in the assay on Chenopodium album [6] (5g a.i./10a) and in the assay on Chenopodium album [6] (10g a.i./10a) was 10 (10: 100%) each time. The “Scirpus juncoides herbicidal efficacy (growth inhibition level)” value in the assay on Scirpus juncoides (1g a.i./10a) is 8 (8: 80% to less than 90%); in the assay on Scirpus juncoides (5g a.i./10a) it was 10 (10: 100%). In addition, the “Echinochloa crus-galli herbicidal efficacy (growth inhibition level)” value is on record as 9 (9: 90% to less than 100%) in the assay with Echinochloa crus-galli (1g a.i./10a) and 10 (10: 100%) in the assay with Echinochloa crus-galli (5g a.i./10a). The “Monochoria vaginalis herbicidal efficacy (growth inhibition level)” value with Monochoria vaginalis (1g a.i./10a) is recorded as 9 (9: 90% to less than 100%); in the assay with Monochoria vaginalis (5g a.i./10a), 10 (10: 100%).

On to `N#Cc1cnn(-c2nn3c(c2Cl)CCCC3)c1N(CC(Cl)=CCl)C(=O)C(F)(F)F` (mixture of isomers) [Compound 23], for which the entries for the “Scirpus juncoides herbicidal efficacy (growth inhibition level)” value with Scirpus juncoides (1g a.i./10a) and with Scirpus juncoides (5g a.i./10a) were 7 (7: 70% to less than 80%) and 8 (8: 80% to less than 90%), respectively. For the same compound, the “Echinochloa crus-galli herbicidal efficacy (growth inhibition level)” value in the assay with Echinochloa crus-galli (1g a.i./10a) is reported as 8 (8: 80% to less than 90%); in the assay on Echinochloa crus-galli (5g a.i./10a) it was 9 (9: 90% to less than 100%). In addition, the “Monochoria vaginalis herbicidal efficacy (growth inhibition level)” value in the assay on Monochoria vaginalis (1g a.i./10a) is 8 (8: 80% to less than 90%); in the assay with Monochoria vaginalis (5g a.i./10a), 9 (9: 90% to less than 100%).

Take `C=C(Cl)CN(C(=O)C(F)(F)F)c1c(C#N)cnn1-c1nn2c(c1Br)CCCC2` [Compound 51]: the “Scirpus juncoides herbicidal efficacy (growth inhibition level)” value in the assay with Scirpus juncoides (1g a.i./10a) and with Scirpus juncoides (5g a.i./10a) was 8 (8: 80% to less than 90%) in each case. Besides, the “Echinochloa crus-galli herbicidal efficacy (growth inhibition level)” value in the assay on Echinochloa crus-galli (1g a.i./10a) and with Echinochloa crus-galli (5g a.i./10a) was 9 (9: 90% to less than 100%) throughout. The “Monochoria vaginalis herbicidal efficacy (growth inhibition level)” value in the assay on Monochoria vaginalis (1g a.i./10a) and with Monochoria vaginalis (5g a.i./10a) was 8 (8: 80% to less than 90%) each time.

`CC(C)=CCNc1c(C#N)cnn1-c1nn2c(c1Br)CCCC2` [Compound 48]: the figures for the “Scirpus juncoides herbicidal efficacy (growth inhibition level)” value with Scirpus juncoides (1g a.i./10a) and in the assay on Scirpus juncoides (5g a.i./10a) were 7 (7: 70% to less than 80%) and 8 (8: 80% to less than 90%), respectively. Further, the “Echinochloa crus-galli herbicidal efficacy (growth inhibition level)” value in the assay with Echinochloa crus-galli (1g a.i./10a) is reported as 8 (8: 80% to less than 90%); with Echinochloa crus-galli (5g a.i./10a), 9 (9: 90% to less than 100%). The “Monochoria vaginalis herbicidal efficacy (growth inhibition level)” value was 8 (8: 80% to less than 90%) with Monochoria vaginalis (1g a.i./10a) and 10 (10: 100%) in the assay with Monochoria vaginalis (5g a.i./10a).

In the case of `C=CCN(C(=O)C(F)(F)F)c1c(C#N)cnn1-c1nn2c(c1Cl)CCCC2` [Compound 17], the “Scirpus juncoides herbicidal efficacy (growth inhibition level)” value in the assay with Scirpus juncoides (1g a.i./10a) and in the assay on Scirpus juncoides (5g a.i./10a) was 9 (9: 90% to less than 100%) throughout. Further, the “Echinochloa crus-galli herbicidal efficacy (growth inhibition level)” value was 9 (9: 90% to less than 100%) in the assay on Echinochloa crus-galli (1g a.i./10a) and 10 (10: 100%) with Echinochloa crus-galli (5g a.i./10a). Besides, the “Monochoria vaginalis herbicidal efficacy (growth inhibition level)” value in the assay with Monochoria vaginalis (1g a.i./10a) and with Monochoria vaginalis (5g a.i./10a) was 8 (8: 80% to less than 90%) in each case.

As for `O=C(N(C/C=C\Cl)c1c([N+](=O)[O-])cnn1-c1nn2c(c1Cl)CCCC2)C(F)(F)F` [Compound 39], the “Scirpus juncoides herbicidal efficacy (growth inhibition level)” value in the assay with Scirpus juncoides (1g a.i./10a) and with Scirpus juncoides (5g a.i./10a) was 8 (8: 80% to less than 90%) in each case. For the same compound, the entries for the “Echinochloa crus-galli herbicidal efficacy (growth inhibition level)” value in the assay with Echinochloa crus-galli (1g a.i./10a) and with Echinochloa crus-galli (5g a.i./10a) were 9 (9: 90% to less than 100%) and 10 (10: 100%), respectively. The “Monochoria vaginalis herbicidal efficacy (growth inhibition level)” value is recorded as 7 (7: 70% to less than 80%) in the assay with Monochoria vaginalis (1g a.i./10a) and 8 (8: 80% to less than 90%) in the assay with Monochoria vaginalis (5g a.i./10a).

In the case of `N#Cc1cnn(-c2nn3c(c2Cl)CCCC3)c1N(CCC(F)=C(F)F)C(=O)C(F)(F)F` [Compound 20], the “Scirpus juncoides herbicidal efficacy (growth inhibition level)” value in the assay with Scirpus juncoides (1g a.i./10a) and in the assay on Scirpus juncoides (5g a.i./10a) was 8 (8: 80% to less than 90%) each time. Moreover, the “Echinochloa crus-galli herbicidal efficacy (growth inhibition level)” value in the assay with Echinochloa crus-galli (1g a.i./10a) and with Echinochloa crus-galli (5g a.i./10a) was 9 (9: 90% to less than 100%) in each case. Also, the “Monochoria vaginalis herbicidal efficacy (growth inhibition level)” value with Monochoria vaginalis (1g a.i./10a) is on record as 8 (8: 80% to less than 90%); in the assay with Monochoria vaginalis (5g a.i./10a) it was 9 (9: 90% to less than 100%).

`CC=CCN(C(=O)C(F)(F)F)c1c([N+](=O)[O-])cnn1-c1nn2c(c1Cl)CCCC2` (mixture of isomers) [Compound 40]: the figures for the “Scirpus juncoides herbicidal efficacy (growth inhibition level)” value with Scirpus juncoides (1g a.i./10a) and with Scirpus juncoides (5g a.i./10a) were 7 (7: 70% to less than 80%) and 8 (8: 80% to less than 90%), respectively. Also, the figures for the “Echinochloa crus-galli herbicidal efficacy (growth inhibition level)” value in the assay on Echinochloa crus-galli (1g a.i./10a) and in the assay on Echinochloa crus-galli (5g a.i./10a) were 8 (8: 80% to less than 90%) and 9 (9: 90% to less than 100%), respectively. Also, the “Monochoria vaginalis herbicidal efficacy (growth inhibition level)” value in the assay with Monochoria vaginalis (1g a.i./10a) and in the assay with Monochoria vaginalis (5g a.i./10a) was 8 (8: 80% to less than 90%) throughout.

For `N#Cc1cnn(-c2nn3c(c2Cl)CCCC3)c1NCCC(F)=C(F)F` [Compound 6], the “Scirpus juncoides herbicidal efficacy (growth inhibition level)” value in the assay with Scirpus juncoides (1g a.i./10a) and in the assay on Scirpus juncoides (5g a.i./10a) was 8 (8: 80% to less than 90%) each time. Also, the “Echinochloa crus-galli herbicidal efficacy (growth inhibition level)” value in the assay with Echinochloa crus-galli (1g a.i./10a) and in the assay on Echinochloa crus-galli (5g a.i./10a) was 9 (9: 90% to less than 100%) in each case. The “Monochoria vaginalis herbicidal efficacy (growth inhibition level)” value in the assay on Monochoria vaginalis (1g a.i./10a) was 7 (7: 70% to less than 80%); in the assay with Monochoria vaginalis (5g a.i./10a), 8 (8: 80% to less than 90%).
